# Measured values reported in patent publication US20070128217A1 (priority 2003, published 2007).
# Assays:
# [1] = system: antibodies in sera from SARS patients (sera 1a, 1b, 2, 6, 37, 62, London, SARS-yellow, SARS-green); format: binding, human; design: Binding of serum 6 to linear peptides of protein X1 of SARS-CoV Urbani / Binding of serum 37 to linear peptides of protein X1 of SARS-CoV Urbani / Binding of serum 6 to looped/cyclic peptide (PEPSCAN-ELISA) / Binding of serum 37 to looped/cyclic peptide (PEPSCAN-ELISA) / Binding of serum 37 to looped/cyclic peptides of protein X1 of SARS-CoV Urbani / Binding of serum 6 to linear peptides of protein X2 / Binding of serum 37 to linear peptides of protein X2 / Binding of serum 37 to looped/cyclic peptides of protein X2 of SARS-CoV Urbani / Binding of serum 6 to linear peptides of protein M of SARS-CoV Urbani / Binding of serum 37 to linear peptides of protein M of SARS-CoV Urbani / Binding of serum 6 to looped/cyclic peptides of protein M of SARS-CoV Urbani / Binding of serum 37 to looped/cyclic peptides of protein M of SARS-CoV Urbani / Binding of serum 6 to linear peptides of protein X3 of SARS-CoV Urbani / Binding of serum 37 to linear peptides of protein X3 of SARS-CoV Urbani / Binding of serum 37 to looped/cyclic peptides of protein X3 of SARS-CoV Urbani / Binding of serum 6 to linear peptides of protein X4 of SARS-CoV Urbani / Binding of serum 37 to linear peptides of protein X4 of SARS-CoV Urbani / Binding of serum 37 to looped/cyclic peptides of protein X4 of SARS-CoV Urbani / Binding of serum 6 to linear peptides of protein X5 of SARS-CoV Urbani / Binding of serum 37 to linear peptides of protein X5 of SARS-CoV Urbani / Binding of serum 37 to looped/cyclic peptides of protein X5 of SARS-CoV Urbani / Binding of serum 6 to linear peptides of protein N of SARS-CoV Urbani / Binding of serum 37 to linear peptides of protein N of SARS-CoV Urbani / Binding of serum 6 to linear peptide (PEPSCAN-ELISA) / Binding of serum 1a to looped/cyclic peptides of protein N of SARS-CoV Urbani / Binding of serum 1b to looped/cyclic peptides of protein N of SARS-CoV Urbani / Binding of serum 2 to looped/cyclic peptides of protein N of SARS-CoV Urbani / Binding of serum 6 to looped/cyclic peptides of protein N of SARS-CoV Urbani / Binding of serum 37 to looped/cyclic peptides of protein N of SARS-CoV Urbani / Binding of serum 62 to looped/cyclic peptides of protein N of SARS-CoV Urbani / Binding of serum London to looped/cyclic peptides of protein N of SARS-CoV Urbani / Binding of serum SARS-green to looped/cyclic peptides of protein N of SARS-CoV Urbani: unit not given here
# [2] = system: control sera (pooled serum of ten healthy LUMC hospital workers; commercial negative donor pooled serum from the Dutch bloodbank); format: binding, human; design: Binding of Control serum LUMC to linear peptides / Binding of Control serum Blood-bank to linear peptides / Binding of Control serum LUMC to looped peptides / Binding of Control Serum Blood-Bank to Looped peptides / Binding of Control serum LUMC to linear peptides of the protein M of SARS-CoV Urbani / Binding of Control serum Blood-bank to linear peptides of the protein M of SARS-CoV Urbani / Binding of Control serum LUMC to looped peptides of the protein M of SARS-CoV Urbani / Binding of Control Serum Blood-Bank to Looped peptides of the protein M of SARS-CoV Urbani: unit not given here
# [3] = system: rabbit serum obtained by immunizing a rabbit with the SARS-CoV strain Frankfurt 1; format: binding; design: Binding of a rabbit serum to linear peptides / Binding of a rabbit serum to looped peptides / Rabbit serum linear peptides / Rabbit serum looped peptides / Binding of a rabbit serum to linear peptides of protein N of SARS-CoV Urbani (Rabbit serum linear peptides) / Binding of a rabbit serum to looped/cyclic peptides of protein N of SARS-CoV Urbani (Rabbit serum looped peptides): unit not given here
# [4] = system: recombinant human anti-SARS-CoV antibody 03-018; format: binding; design: Binding of antibody 03-018 to linear peptides of the N protein of SARS-CoV Urbani / Binding of antibody 03-018 to looped/cyclic peptides of the N protein of SARS-CoV Urbani: unit not given here
sequence,measurement,setting,value
KKQPTVTLLPAADMD,Binding of serum 1a to linear peptides of protein N of SARS-CoV Urbani,[1],0.3
same,Binding of serum 1a to looped/cyclic peptides of protein N of SARS-CoV Urbani,[1],0.3
same,Binding of serum 1b to linear peptides of protein N of SARS-CoV Urbani,[1],0.2
same,Binding of serum 1b to looped/cyclic peptides of protein N of SARS-CoV Urbani,[1],0.2
same,Binding of serum 2 to linear peptides of protein N of SARS-CoV Urbani,[1],0.2
same,Binding of serum 2 to looped/cyclic peptides of protein N of SARS-CoV Urbani,[1],0.2
same,Binding of serum 6 to linear peptides of protein N of SARS-CoV Urbani,[1],0.2
same,Binding of serum 6 to looped/cyclic peptides of protein N of SARS-CoV Urbani,[1],0.1
same,Binding of serum 37 to linear peptides of protein N of SARS-CoV Urbani,[1],1.0
same,Binding of serum 37 to looped/cyclic peptides of protein N of SARS-CoV Urbani,[1],0.4
same,Binding of serum 62 to linear peptides of protein N of SARS-CoV Urbani,[1],0.7
same,Binding of serum 62 to looped/cyclic peptides of protein N of SARS-CoV Urbani,[1],0.2
same,Binding of serum London to linear peptides of protein N of SARS-CoV Urbani,[1],0.6
same,Binding of serum London to looped/cyclic peptides of protein N of SARS-CoV Urbani,[1],0.2
same,Binding of serum SARS-green to linear peptides of protein N of SARS-CoV Urbani,[1],1.3
same,Binding of serum SARS-green to looped/cyclic peptides of protein N of SARS-CoV Urbani,[1],0.7
same,Binding of serum SARS-yellow to linear peptides of protein N of SARS-CoV Urbani,[1],0.5
same,Binding of serum SARS-yellow to looped/cyclic peptides of protein N of SARS-CoV Urbani,[1],0.2
same,Control Serum Blood-Bank Looped peptides,[2],0.3
same,Control serum Blood-bank linear peptides,[2],0.7
same,Control serum LUMC linear peptides,[2],0.6
same,Control serum LUMC looped peptides,[2],0.3
same,Binding of a rabbit serum to linear peptides of protein N of SARS-CoV Urbani (Rabbit serum linear peptides),[3],0.1
same,Binding of a rabbit serum to looped/cyclic peptides of protein N of SARS-CoV Urbani (Rabbit serum looped peptides),[3],0.2
same,Binding of antibody 03-018 to linear peptides of the N protein of SARS-CoV Urbani,[4],0.1
same,Binding of antibody 03-018 to looped/cyclic peptides of the N protein of SARS-CoV Urbani,[4],0.2
KKTDEAQPLPQRQKK,Binding of serum 1a to linear peptides of protein N of SARS-CoV Urbani,[1],0.2
same,Binding of serum 1a to looped/cyclic peptides of protein N of SARS-CoV Urbani,[1],0.2
same,Binding of serum 1b to linear peptides of protein N of SARS-CoV Urbani,[1],0.1
same,Binding of serum 1b to looped/cyclic peptides of protein N of SARS-CoV Urbani,[1],0.1
same,Binding of serum 2 to linear peptides of protein N of SARS-CoV Urbani,[1],0.3
same,Binding of serum 2 to looped/cyclic peptides of protein N of SARS-CoV Urbani,[1],0.1
same,Binding of serum 6 to linear peptides of protein N of SARS-CoV Urbani,[1],0.4
same,Binding of serum 6 to looped/cyclic peptides of protein N of SARS-CoV Urbani,[1],0.0
same,Binding of serum 37 to linear peptides of protein N of SARS-CoV Urbani,[1],0.7
same,Binding of serum 37 to looped/cyclic peptides of protein N of SARS-CoV Urbani,[1],0.4
same,Binding of serum 62 to linear peptides of protein N of SARS-CoV Urbani,[1],0.6
same,Binding of serum 62 to looped/cyclic peptides of protein N of SARS-CoV Urbani,[1],0.2
same,Binding of serum London to linear peptides of protein N of SARS-CoV Urbani,[1],1.7
same,Binding of serum London to looped/cyclic peptides of protein N of SARS-CoV Urbani,[1],0.2
same,Binding of serum SARS-green to linear peptides of protein N of SARS-CoV Urbani,[1],0.2
same,Binding of serum SARS-green to looped/cyclic peptides of protein N of SARS-CoV Urbani,[1],0.0
same,Binding of serum SARS-yellow to linear peptides of protein N of SARS-CoV Urbani,[1],1.1
same,Binding of serum SARS-yellow to looped/cyclic peptides of protein N of SARS-CoV Urbani,[1],0.0
same,Control Serum Blood-Bank Looped peptides,[2],0.4
same,Control serum Blood-bank linear peptides,[2],0.7
same,Control serum LUMC linear peptides,[2],0.7
same,Control serum LUMC looped peptides,[2],0.3
same,Binding of a rabbit serum to linear peptides of protein N of SARS-CoV Urbani (Rabbit serum linear peptides),[3],0.2
same,Binding of a rabbit serum to looped/cyclic peptides of protein N of SARS-CoV Urbani (Rabbit serum looped peptides),[3],0.0
same,Binding of antibody 03-018 to linear peptides of the N protein of SARS-CoV Urbani,[4],0.1
same,Binding of antibody 03-018 to looped/cyclic peptides of the N protein of SARS-CoV Urbani,[4],0.2
KMKELSPRWYFYYLG,Binding of serum 1a to linear peptides of protein N of SARS-CoV Urbani,[1],0.2
same,Binding of serum 1a to looped/cyclic peptides of protein N of SARS-CoV Urbani,[1],0.3
same,Binding of serum 1b to linear peptides of protein N of SARS-CoV Urbani,[1],0.1
same,Binding of serum 1b to looped/cyclic peptides of protein N of SARS-CoV Urbani,[1],0.2
same,Binding of serum 2 to linear peptides of protein N of SARS-CoV Urbani,[1],0.1
same,Binding of serum 2 to looped/cyclic peptides of protein N of SARS-CoV Urbani,[1],0.4
same,Binding of serum 6 to linear peptides of protein N of SARS-CoV Urbani,[1],0.1
same,Binding of serum 6 to looped/cyclic peptides of protein N of SARS-CoV Urbani,[1],0.3
same,Binding of serum 37 to linear peptides of protein N of SARS-CoV Urbani,[1],0.5
same,Binding of serum 37 to looped/cyclic peptides of protein N of SARS-CoV Urbani,[1],0.7
same,Binding of serum 62 to linear peptides of protein N of SARS-CoV Urbani,[1],0.5
same,Binding of serum 62 to looped/cyclic peptides of protein N of SARS-CoV Urbani,[1],0.7
same,Binding of serum London to linear peptides of protein N of SARS-CoV Urbani,[1],0.4
same,Binding of serum London to looped/cyclic peptides of protein N of SARS-CoV Urbani,[1],0.4
same,Binding of serum SARS-green to linear peptides of protein N of SARS-CoV Urbani,[1],0.1
same,Binding of serum SARS-green to looped/cyclic peptides of protein N of SARS-CoV Urbani,[1],0.4
same,Binding of serum SARS-yellow to linear peptides of protein N of SARS-CoV Urbani,[1],0.6
same,Binding of serum SARS-yellow to looped/cyclic peptides of protein N of SARS-CoV Urbani,[1],0.6
same,Binding of Control Serum Blood-Bank to Looped peptides,[2],0.8
same,Binding of Control serum Blood-bank to linear peptides,[2],0.6
same,Binding of Control serum LUMC to linear peptides,[2],0.5
same,Binding of Control serum LUMC to looped peptides,[2],0.6
same,Binding of a rabbit serum to linear peptides of protein N of SARS-CoV Urbani (Rabbit serum linear peptides),[3],0.1
same,Binding of a rabbit serum to looped/cyclic peptides of protein N of SARS-CoV Urbani (Rabbit serum looped peptides),[3],0.6
same,Binding of antibody 03-018 to linear peptides of the N protein of SARS-CoV Urbani,[4],0.1
same,Binding of antibody 03-018 to looped/cyclic peptides of the N protein of SARS-CoV Urbani,[4],0.2
